From patent publication US4683237A, “Fluoroalkyl esters of dihydrolysergic acid useful as 5HT2 receptor antagonists” (Eli Lilly and Company, priority 1985, dated 1987)
Counter-ions that a name gives are not always drawn.

Key:
5HT2 receptors [1] = biological target: T1, 5HT2 receptors (Rattus norvegicus, UniProt P14842); assay: Antagonism of serotonin contraction in isolated rat external jugular vein (apparent antagonist dissociation constant); set-up: species or system Male Wistar rats; settings: serotonin agonist, antagonist incubated one hour, 37° C., read-out: -log KB ± S.E. (apparent antagonist dissociation constant) (converted)
T1 construct: Contraction to serotonin was evaluated in the jugular vein since this tissue produces marked responses to serotonin in the absence of alpha receptors; from tissue; host or cells: external jugular vein of male Wistar rats
T1 sequence (P14842 whole entry): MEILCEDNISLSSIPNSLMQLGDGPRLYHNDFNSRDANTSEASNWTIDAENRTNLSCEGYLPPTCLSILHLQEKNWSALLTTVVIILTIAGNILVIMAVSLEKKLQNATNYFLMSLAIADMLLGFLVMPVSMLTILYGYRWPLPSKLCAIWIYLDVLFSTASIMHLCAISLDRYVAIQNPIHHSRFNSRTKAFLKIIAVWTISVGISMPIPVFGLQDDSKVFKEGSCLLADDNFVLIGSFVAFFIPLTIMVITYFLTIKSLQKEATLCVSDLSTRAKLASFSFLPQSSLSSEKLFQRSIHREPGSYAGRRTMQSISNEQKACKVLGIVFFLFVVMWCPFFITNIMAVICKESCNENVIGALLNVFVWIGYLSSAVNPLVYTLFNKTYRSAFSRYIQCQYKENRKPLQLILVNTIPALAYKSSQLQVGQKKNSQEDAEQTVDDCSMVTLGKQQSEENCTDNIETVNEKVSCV
Description: An initial optimum resting force of 1 and 4 g was applied to the jugular vein and aorta, respectively. […] Exp. Ther., 205, 400 (1978). Alpha receptor antagonist activity was evaluated in the aorta.
The -log KB ±S.E. value obtained for 1-fluoromehtyl-2-fluoroethyl 1-isopropyl-9,10-dihydrolysergate maleate was 8.97±0.22.

[2] = test system: vascular alpha adrenergic, dopaminergic and histaminergic receptors; settings: in words; Cohen I; cited from earlier work
5HT2 receptors [3] = settings: in words; Garbrecht compounds; cited from earlier work
5HT2 receptors [4] = settings: in words; mediated by 5HT2 receptors; Cohen I; cited from earlier work

Work on CC(C)n1cc2c3c(cccc31)[C@H]1C[C@@H](C(=O)OC(CF)CF)CN(C)[C@@H]1C2 [1-fluoromethyl-2-fluoroethyl-1-isopropyl-9,10-dihydrolysergate maleate] yielded a Kb (5HT2 receptors [1]) of 1.07 nM.

In the case of CC(O)C(C)OC(=O)[C@@H]1C[C@@H]2c3cccc4c3c(cn4C(C)C)C[C@H]2N(C)C1 (stereo partly drawn) [LY53857, 1-isopropyl-6-methyl-8β-(1-methyl-2-hydroxy)propoxycarbonyl-5R-ergoline], the “affinity for vascular alpha adrenergic, dopaminergic and histaminergic receptors” value [2] is listed as “minimal affinity”, the “peripheral serotonin antagonist activity against 5HT2 receptors” value (5HT2 receptors [3]) is listed as “most active peripheral serotonin antagonist from Garbrecht” and the “antagonism of vascular contraction to serotonin” value (5HT2 receptors [4]) is listed as “potent antagonist of vascular contraction to serotonin”.
